Tests used:
SHSY5Y cell = test: Exposure of SHSY5Y neuroblastoma cells to stimulants: marker enzyme expression and extension of neuron projection; assay type: cell-based; details: a neuroblastoma from human
Excerpt: The functions of (1) and (2) are different, but share the same properties in terms of extension of neuron projection. Therefore, cellular components necessary for these two intracellular alteration were specified experimentally by means of RNA interference method. As such, it was obtained that the component collection (3) necessary for the alteration from SHSY5Y to (1) are {JAK1, JAK3, ROR, and RET}. On the other hand, the component collection (4) necessary for the alteration from SHSY5Y cells to (2), are {NTRK1, EPHB2, INSR, RDGFRA, ROR and RET}. When comparing and calculation of intersection is done for (3) and (4), the intersection (5) was obtained to read {ROR and RET}. Next, the collection (6) {JAK1 and JAK3} by subtraction of (3)-(5) and the collection (5) were analyzed in terms of an intermolecular interaction, and the existence of a pathway of a molecular signals from (6) to (5) (FIG. 3A) was determined. Furthermore, the collection (7) which was obtained by the subtraction of (4)-(5), and the collection (5) were analyzed in terms of an intermolecular interaction, and the existence of a pathway of molecular signals from (7) to (5) (FIG. 3B) was further determined. The common components and pathway relating to the projection extension by retinoic acid (RA) and Nerve Growth Factor (NGF) are shown in FIG. 4.

SK-BR-3 = details: breast cancer cell SK-BR-3; stated as known; cited from earlier work
T-47D cell = details: human derived breast cancer, compared with SK-BR-3; cited from earlier work
MCF7 = details: breast cancer cells MCF7; cited from earlier work

Compound	expression of tyrosine hydroxylase (SHSY5Y cell)	extension of neuron projection (SHSY5Y cell)	neuron cell type formed (SHSY5Y cell)	growth inhibition (SK-BR-3)	DXR sensitivity (T-47D cell)	DXR resistance (MCF7)
Nerve Growth Factor: Nerve Growth Factor (NGF), stimulant triggering neurite outgrowth in SHSY5Y cells	tyrosine hydroxylase was expressed	caused extension of neuron projection	forms dopaminergic neuron cells			
COc1cccc2c1C(=O)c1c(O)c3c(c(O)c1C2=O)C[C@@](O)(C(=O)CO)C[C@@H]3O[C@H]1C[C@H](N)[C@H](O)[C@H](C)O1 [doxorubicin]				subjected to growth inhibition	same DXR sensitivity as the SK-BR-3	having DXR resistance

From patent publication US20100210708A1, “COMPOUND PROFILING METHOD” (CYTOPATHFINDER, INC., priority 2007, published 2010)
